Here are results for two compounds from ChEMBL document CHEMBL1150318, “Discovery of a novel, orally active himbacine-based thrombin receptor antagonist (SCH 530348) with potent antiplatelet activity” (J Med Chem, 2008).

The source made the active and inactive calls.

In data set [1] the target is T1, Proteinase-activated receptor 1 (Homo sapiens, UniProt P25116).
T1 sequence (P25116 whole entry): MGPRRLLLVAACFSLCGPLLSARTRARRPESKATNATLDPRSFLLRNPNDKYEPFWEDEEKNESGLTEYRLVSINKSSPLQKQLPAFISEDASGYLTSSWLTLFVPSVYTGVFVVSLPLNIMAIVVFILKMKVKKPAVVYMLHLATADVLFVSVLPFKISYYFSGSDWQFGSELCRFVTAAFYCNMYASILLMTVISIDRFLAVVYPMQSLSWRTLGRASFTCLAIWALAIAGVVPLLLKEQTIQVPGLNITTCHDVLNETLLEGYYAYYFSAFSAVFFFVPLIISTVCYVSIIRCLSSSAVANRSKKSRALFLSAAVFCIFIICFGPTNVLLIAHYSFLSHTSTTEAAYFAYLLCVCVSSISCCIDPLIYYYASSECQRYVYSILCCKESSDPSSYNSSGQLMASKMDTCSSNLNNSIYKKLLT
Put plainly: Displacement of [3H]haTRAP from PAR1 in human platelets. In general terms: Loss of bound radioactivity is the signal in a displacement assay; it reports binding, not function.

Data set [2] deals with Platelet. In words: Ex vivo inhibition of haTRAP-induced platelet aggregation in cynomolgus monkey at 1 mg/kg after >24 hrs by impedance aggregometry. The following applies: Macaca fascicularis. The data set is classed as functional.
A short description of data set [3]: Cmax in cynomolgus monkey at 1 mg/kg, po after >24 hrs. The data set is classed as ADME, organism-based, Macaca fascicularis. More on the design: dose 1 mg/kg, route oral. The following applies: in vivo.
Data set [4] in a line: AUC (0 to 24 hrs) in cynomolgus monkey at 1 mg/kg, po after >24 hrs. Set-up: time < 24 hr, dose 1 mg/kg, route oral. The following applies: plasma. The data set is classed as ADME, organism-based, Macaca fascicularis.
A short description of data set [5]: Oral absorption in rat 10 mg/kg, po. Set-up: dose 10 mg/kg, route oral. The data set is classed as ADME, organism-based. The following applies: in vivo, read-out: Fabs.
A short description of data set [6]: Inhibition of […] in human liver microsomes at 90 uM. The data set is classed as ADME, Microsome. In general terms: Microsomes from liver hold many membrane-bound enzymes, among them those of drug oxidation.
Data set [7] in a line: Half life in monkey 1 mg/kg, iv. The data set is classed as ADME, organism-based, Macaca mulatta. Set-up: dose 1 mg/kg, route intravenous. The settings on record: rhesus monkey, in vivo.
The nature of data set [8]: AUC (0 to 24 hrs) in rat 10 mg/kg, po. The data set is classed as ADME, organism-based. Set-up: time < 24 hr, dose 10 mg/kg, route oral. The settings on record: plasma.
A further data set has as its target Cytochrome P450 3A4 (Homo sapiens, UniProt P08684). Put plainly: Inhibition of CYP3A4 in human liver microsomes at 90 uM. The data set is classed as ADME, Microsome.
The next data set addresses Cytochrome P450 2C9 (Homo sapiens, UniProt P11712). Put plainly: Inhibition of CYP2C9 in human liver microsomes at 90 uM. The data set is classed as ADME, Microsome.
Data set [9] deals with T1, Proteinase-activated receptor 1. Put plainly: Antagonist activity at human PAR1 in HCASMC assessed as inhibition of thrombin-induced calcium efflux. The data set is classed as functional.
Data set [10] is described as follows: Oral bioavailability in rat 10 mg/kg. The data set is classed as ADME, organism-based. The following applies: in vivo.
In data set [11] the test system is Platelet. Put plainly: Ex vivo inhibition of haTRAP-induced platelet aggregation in cynomolgus monkey at 0.5 mg/kg, po after 24 hrs by impedance aggregometry. The data set is classed as functional. The following applies: Macaca fascicularis.
Data set [12] deals with Platelet. In words: Ex vivo inhibition of haTRAP-induced platelet aggregation in cynomolgus monkey at 0.1 mg/kg after >24 hrs by impedance aggregometry. The data set is classed as functional. The settings on record: Macaca fascicularis.
Data set [13] addresses T2, Proteinase-activated receptor 3 (Homo sapiens) (UniProt O00254).
T2 sequence (whole entry): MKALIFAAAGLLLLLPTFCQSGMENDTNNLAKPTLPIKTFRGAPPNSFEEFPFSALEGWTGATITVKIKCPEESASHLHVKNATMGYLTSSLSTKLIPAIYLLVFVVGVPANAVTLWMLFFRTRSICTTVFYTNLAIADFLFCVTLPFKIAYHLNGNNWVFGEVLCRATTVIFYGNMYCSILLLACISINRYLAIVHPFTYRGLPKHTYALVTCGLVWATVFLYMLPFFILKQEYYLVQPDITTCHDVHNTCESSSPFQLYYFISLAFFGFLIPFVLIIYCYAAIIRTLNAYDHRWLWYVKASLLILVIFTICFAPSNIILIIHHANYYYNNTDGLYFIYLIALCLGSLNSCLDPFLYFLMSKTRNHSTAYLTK
Put plainly: Binding affinity to PAR3.

The target in data set [14] is Proteinase-activated receptor 2 (Homo sapiens) (UniProt P55085). Put plainly: Binding affinity to PAR2.
Data set [15] in a line: AUC (0 to 24 hrs) in monkey 1 mg/kg, po. The data set is classed as ADME, organism-based, Macaca mulatta. The settings on record: rhesus monkey, plasma. More on the design: time < 24 hr, dose 1 mg/kg, route oral.
The nature of data set [16]: Tmax in rat 10 mg/kg, po. Set-up: dose 10 mg/kg, route oral. The data set is classed as ADME, organism-based. The settings on record: in vivo.
The test system of data set [17] is Platelet. In words: Ex vivo inhibition of haTRAP-induced platelet aggregation in cynomolgus monkey at 0.3 mg/kg, po after 24 hrs by impedance aggregometry. The data set is classed as functional. The settings on record: Macaca fascicularis.
Data set [18] has as its system Plasma. Put plainly: Anticoagulant activity in human plasma assessed as activated partial thromboplastin time. The data set is classed as functional, cell-free.
For data set [19], the target named is T3, Proteinase-activated receptor 4 (Homo sapiens) (UniProt Q96RI0).
T3 sequence (whole entry): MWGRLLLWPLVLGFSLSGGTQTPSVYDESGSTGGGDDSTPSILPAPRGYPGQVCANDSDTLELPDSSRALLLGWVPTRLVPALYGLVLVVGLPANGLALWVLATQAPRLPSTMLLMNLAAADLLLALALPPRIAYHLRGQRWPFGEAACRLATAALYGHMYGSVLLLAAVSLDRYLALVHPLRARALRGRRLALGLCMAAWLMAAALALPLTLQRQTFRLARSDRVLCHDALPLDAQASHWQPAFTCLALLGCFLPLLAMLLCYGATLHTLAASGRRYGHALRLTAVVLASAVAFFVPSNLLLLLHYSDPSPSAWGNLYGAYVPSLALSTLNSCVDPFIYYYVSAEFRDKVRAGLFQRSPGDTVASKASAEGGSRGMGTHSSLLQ
Put plainly: Activity at PAR4.

The target in a further data set is T4, Cytochrome P450 1A2 (Homo sapiens, UniProt P05177).
T4 sequence (P05177 whole entry): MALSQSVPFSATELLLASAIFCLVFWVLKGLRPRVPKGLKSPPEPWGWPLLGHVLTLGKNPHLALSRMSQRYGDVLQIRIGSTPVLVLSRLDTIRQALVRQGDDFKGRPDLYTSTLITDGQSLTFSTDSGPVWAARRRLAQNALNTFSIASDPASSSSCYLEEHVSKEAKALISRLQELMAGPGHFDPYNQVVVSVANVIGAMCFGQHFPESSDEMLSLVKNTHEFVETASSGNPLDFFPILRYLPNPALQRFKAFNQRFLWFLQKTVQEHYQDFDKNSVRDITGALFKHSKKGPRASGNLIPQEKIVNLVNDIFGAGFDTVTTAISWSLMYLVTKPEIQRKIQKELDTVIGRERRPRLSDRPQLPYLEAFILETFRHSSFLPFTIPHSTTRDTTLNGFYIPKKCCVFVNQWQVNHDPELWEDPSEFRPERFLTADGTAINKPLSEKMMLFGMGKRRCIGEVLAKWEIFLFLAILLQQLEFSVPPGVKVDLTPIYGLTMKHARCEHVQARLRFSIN
In words: Inhibition of CYP1A2 in human liver microsomes at 90 uM. The data set is classed as ADME, Microsome.

Data set [20] can be described thus: Cmax in rat 10 mg/kg, po. Set-up: dose 10 mg/kg, route oral. The data set is classed as ADME, organism-based. The following applies: in vivo.
Data set [21] can be described thus: AUC (0 to 24 hrs) in cynomolgus monkey at 0.1 mg/kg, po after >24 hrs. The data set is classed as ADME, organism-based, Macaca fascicularis. The settings on record: plasma. More on the design: time < 24 hr, dose 0.1 mg/kg, route oral.
A short description of data set [22]: Tmax in monkey 1 mg/kg, po. The data set is classed as ADME, organism-based, Macaca mulatta. Set-up: dose 1 mg/kg, route oral. The settings on record: rhesus monkey, in vivo.
Data set [23] can be described thus: Oral absorption in monkey 1 mg/kg, po. The settings on record: rhesus monkey, in vivo, read-out: Fabs.
The nature of data set [24]: Cmax in monkey 1 mg/kg, po. The data set is classed as ADME, organism-based, Macaca mulatta. More on the design: dose 1 mg/kg, route oral. The settings on record: rhesus monkey, in vivo.
Data set [25] relates to Plasma. Put plainly: Anticoagulant activity in human plasma assessed as prothrombin time. The data set is classed as functional, cell-free.
Data set [26] can be described thus: Oral bioavailability in monkey 1 mg/kg. The data set is classed as ADME, organism-based, Macaca mulatta. The settings on record: rhesus monkey, in vivo.
A short description of data set [27]: Cmax in cynomolgus monkey at 0.1 mg/kg, po after >24 hrs. The data set is classed as ADME, organism-based, Macaca fascicularis. More on the design: dose 0.1 mg/kg, route oral. The following applies: in vivo.
Data set [28] in a line: Half life in rat 10 mg/kg, iv. The data set is classed as ADME, organism-based. The settings on record: in vivo. More on the design: dose 10 mg/kg, route intravenous.
In another data set the target is Cytochrome P450 2C19 (Homo sapiens, UniProt P33261). In words: Inhibition of CYP2C19 in human liver microsomes at 90 uM. The data set is classed as ADME, Microsome.
Chain of Cytochrome P450 2C19 (P33261 whole entry): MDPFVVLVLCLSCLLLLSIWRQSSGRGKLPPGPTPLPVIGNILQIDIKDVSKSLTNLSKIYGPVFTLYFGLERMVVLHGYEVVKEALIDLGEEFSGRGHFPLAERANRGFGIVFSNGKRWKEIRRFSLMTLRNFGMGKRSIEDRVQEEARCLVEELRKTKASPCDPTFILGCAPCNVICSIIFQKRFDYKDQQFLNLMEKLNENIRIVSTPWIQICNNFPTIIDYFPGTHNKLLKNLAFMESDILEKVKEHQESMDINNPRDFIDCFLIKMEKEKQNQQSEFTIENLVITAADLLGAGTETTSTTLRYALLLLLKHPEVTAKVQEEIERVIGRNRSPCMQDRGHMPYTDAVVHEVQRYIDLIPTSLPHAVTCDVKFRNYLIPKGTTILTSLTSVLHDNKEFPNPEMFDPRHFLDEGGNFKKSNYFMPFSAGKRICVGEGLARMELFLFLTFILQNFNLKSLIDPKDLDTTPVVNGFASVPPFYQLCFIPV

Chain of Cytochrome P450 2C9 (P11712 whole entry): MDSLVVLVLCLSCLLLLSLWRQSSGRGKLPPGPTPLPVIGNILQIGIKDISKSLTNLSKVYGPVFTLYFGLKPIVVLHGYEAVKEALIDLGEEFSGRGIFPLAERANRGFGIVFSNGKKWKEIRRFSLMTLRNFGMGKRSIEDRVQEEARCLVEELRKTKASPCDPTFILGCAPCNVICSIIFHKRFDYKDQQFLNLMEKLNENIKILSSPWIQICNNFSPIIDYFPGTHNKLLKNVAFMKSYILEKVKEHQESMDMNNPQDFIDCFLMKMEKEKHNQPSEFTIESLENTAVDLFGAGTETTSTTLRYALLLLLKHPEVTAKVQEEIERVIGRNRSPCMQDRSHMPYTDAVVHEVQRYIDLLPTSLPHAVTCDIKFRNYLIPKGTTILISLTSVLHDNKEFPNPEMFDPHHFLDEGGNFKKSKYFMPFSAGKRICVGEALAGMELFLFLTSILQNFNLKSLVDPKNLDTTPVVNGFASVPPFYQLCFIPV
Chain of Proteinase-activated receptor 2 (Homo sapiens) (P55085 whole entry): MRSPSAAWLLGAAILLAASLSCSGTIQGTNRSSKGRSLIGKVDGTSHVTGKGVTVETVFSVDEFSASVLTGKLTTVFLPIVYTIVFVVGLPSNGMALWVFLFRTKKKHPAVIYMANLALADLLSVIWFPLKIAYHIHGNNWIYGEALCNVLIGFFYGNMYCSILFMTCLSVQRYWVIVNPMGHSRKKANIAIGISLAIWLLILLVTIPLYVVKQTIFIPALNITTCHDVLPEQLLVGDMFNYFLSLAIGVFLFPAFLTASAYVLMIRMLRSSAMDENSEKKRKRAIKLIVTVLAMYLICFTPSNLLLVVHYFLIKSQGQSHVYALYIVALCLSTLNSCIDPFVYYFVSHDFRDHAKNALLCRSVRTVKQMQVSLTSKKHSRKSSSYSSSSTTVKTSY
Chain of Cytochrome P450 3A4 (P08684 whole entry): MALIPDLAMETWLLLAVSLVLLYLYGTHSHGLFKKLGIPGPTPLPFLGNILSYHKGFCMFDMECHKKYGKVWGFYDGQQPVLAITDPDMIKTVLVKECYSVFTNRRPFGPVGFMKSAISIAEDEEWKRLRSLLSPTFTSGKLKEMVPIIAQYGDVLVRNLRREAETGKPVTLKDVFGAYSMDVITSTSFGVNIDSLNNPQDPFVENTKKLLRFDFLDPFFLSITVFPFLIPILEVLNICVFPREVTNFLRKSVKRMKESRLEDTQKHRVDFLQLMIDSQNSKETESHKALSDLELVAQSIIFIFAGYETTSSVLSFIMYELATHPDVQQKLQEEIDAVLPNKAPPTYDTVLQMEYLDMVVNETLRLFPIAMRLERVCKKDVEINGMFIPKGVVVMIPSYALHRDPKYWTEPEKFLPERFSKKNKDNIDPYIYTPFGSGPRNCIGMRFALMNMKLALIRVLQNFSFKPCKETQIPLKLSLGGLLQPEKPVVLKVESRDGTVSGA

A word on the Ki: it is a measure of affinity in units of concentration, obtained from inhibition or displacement. As usually defined, the inhibition in vivo is how much of the control response was suppressed. By Cmax is commonly meant the peak of the concentration-time curve. In general, AUC(0-t) refers to the area under the concentration-time curve up to a stated or last time point. In turn, `CCOC(=O)N[C@@H]1CC[C@@H]2[C@@H](C1)C[C@H]1C(=O)O[C@H](C)[C@H]1[C@H]2/C=C/c1ccc(-c2cccc(C(F)(F)F)c2)cn1` came in with a Ki in [1] of 13 nM. The compound also yielded an inhibition in vivo at 1 mg/kg in the data set on Platelet [2] of 100%. In addition, the Cmax in [3] is 330 nM. The compound also displayed an AUC(0-t) at 24 h in data set [4] of 5.03 µM·h.
What is called half-life is the time needed for the level to fall by half in the phase considered. The term bioavailability denotes dose-corrected exposure relative to a reference, in per cent. The term Tmax denotes the time at which the peak concentration occurs. Take `CCOC(=O)N[C@@H]1CC[C@@H]2[C@@H](C1)C[C@H]1C(=O)O[C@H](C)[C@H]1[C@H]2/C=C/c1ccc(-c2cccc(F)c2)cn1` [VORAPAXAR]: the Fa in [5] worked out at 68%; in data set [23], 82%. The Activity entry (in data set [6]; on Cytochrome P450 3A4; on Cytochrome P450 2C9; on Cytochrome P450 1A2; on Cytochrome P450 2C19) was “Not Active” in each case. The half-life was 13 h in data set [7] and 5.1 h in data set [28]. The exposure AUC(0-t) at 24 h in data set [8] stood at 5.3 µM·h; in data set [15], 10 µM·h; in data set [21], 0.2 µM·h. Besides, the Ki came to 1.1 nM in data set [9] and 8.1 nM in data set [1]. The bioavailability in data set [10] was determined as 33%; in data set [26], 86%. Further, the inhibition in vivo at 0.5 mg/kg in the data set on Platelet [11] was 100%. Besides, testing at 0.1 mg/kg in the data set with Platelet [12] gave an inhibition in vivo of 100%. Moreover, the result (in [13]; in [14]; with Plasma [18]; in data set [19]; in the data set on Plasma [25]) was inactive. The Tmax in data set [16] turned out to be 3 h; in [22], 1 h. Moreover, the inhibition in vivo at 0.3 mg/kg in the data set on Platelet [17] was determined as 100%. Besides, the Cmax in data set [20] amounted to 670 nM; in data set [24], 1300 nM; in data set [27] it was 18 nM.
